In patent publication US20110244063A1, “NOVEL SEBUM SECRETION INHIBITORY AGENT” (BASF Beauty Care Solutions France S.A.S., priority 2008, published 2011):

Key:
Type in all cases: in vivo, human
[1] = system: Caucasian and Asian volunteers; assay: Clinical assessment of pore size and shiny appearance in volunteers, once-daily topical application; settings: after 28 days of treatment, extract at 2%, zinc gluconate 1%
Experimental: (§1) The principle of this evaluation is based on the clinical and instrumental analysis of samples of secretions of sebum using Sebutape™ patches according to the conventional method.
(§2) The products tested were: • the extract according to the invention prepared in accordance with Example 1 a) is tested at final concentrations of from 0.5% to 2% of extract 1 a) diluted in water • an aqueous solution of zinc gluconate at 1% (10 mg/mL; 2.2×10^−2 mol/L) in water is used as positive control • no solution as negative control
(§3) The following treatment was carried out for each of the products tested: Caucasian and Asian volunteers applied a test product once a day, in blind conditions. Clinical and instrumental assessments, by application of Sebutape™ patches, were carried out on D0, D14 and D28 and the contents of these samples of Sebutape™ patches were analysed quantitatively by image analyser (polarimetric imaging).
(§4) The experiment was conducted on Caucasian and Asian volunteers according to the conditions described in Example 3 for 28 days of treatment (last application on D27 in the evening). Assessments carried out on D30 allowed the persistence of the effect of an extract according to the invention on the production of sebum to be evaluated, two days after stopping the treatment.

[2] = system: Caucasian and Asian volunteers; assay: Squalene content of sebum sampled with Sebutape patches (HPTLC, densitometry); settings: after 28 days of treatment; zinc gluconate 1%; signed change
Experimental: as §1, §2, §3
Determination of the squalene taken in the Sebutape™ patches was carried out as follows:
The Sebutape™ patches were treated by extraction with 10 ml of ether. […]
The squalene spots were then quantified by densitometry using an instrument of the ChromatoScan CS-93 (Shimadzu) type. Reading was based on absorption at 450 nm and the area of the peaks was expressed in arbitrary units in the table of results given below.

[3] = system: Caucasian and Asian volunteers; assay: Number of active sebaceous glands (number of spots on Sebutape patches, image analysis)
Experimental: as §1, §2
The following treatment was carried out for each of the products tested: Caucasian and Asian volunteers applied a test product once a day, in blind conditions. Clinical and instrumental assessments, by application of Sebutape™ patches, were carried out on D0, D14 and D28 and the contents of these samples of Sebutape™ patches were analysed quantitatively by image analyser (polarimetric imaging). […]
as §4

Asian volunteers = assay: Self-evaluation of skin texture (refinement of skin grain) after stopping treatment; settings: 2 days after stopping the treatment, extract at 2%, zinc gluconate positive control
Experimental: as §4
Results for skin texture: (self-evaluation)
Moreover, 2 days after stopping the treatment, 71% of the Asian volunteers who had applied the extract according to Example 1 a) at 2% declared that there was refinement of their skin grain (p<0.05). In comparison, only 52% of the volunteers in the group of volunteers who had applied the positive control (zinc gluconate) noticed an improvement in this parameter.

Question: How did the “Reduction of pore size (clinical assessment)” value [1] turn out when zinc gluconate [Zinc gluconate 1%] was run?
Answer: 17.5%

Question: What about the “Change of content of squalene in the sebum” value [2] of the same substance?
Answer: −14%

Question: What about the “Active sebaceous glands, % Dn/D0, 2 days after D28” value ([3]; number of spots on Sebutape patches 2 days after stopping the treatment compared against D0) of the same substance?
Answer: −3.8%

Question: And the “Active sebaceous glands, % Dn/D0, D28” value ([3]; number of spots on Sebutape patches after 28 days compared against D0)?
Answer: +8.5%

Question: And the “Volunteers who declared refinement of their skin grain (self-evaluation)” value (Asian volunteers)?
Answer: 52%
